Laboratory results published in ChEMBL document CHEMBL1201862, “PubChem BioAssay data set” (2004).
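Grown in 96-well plates, cells were treated for 48 hours with each compound at five concentrations. Insufficient inhibition: endpoint recorded as highest concentration tested. GI50 = concentration required for 50% inhibition of growth.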 The source made the active and inactive calls. Cut-off read from the data, not from the text of the source: active = GI50 up to about 1.1 µM and inactive = higher.

Legend:
Experiment in all cases: NCI tumour cell line growth inhibition, 48 h
HCT-116 = system: HCT-116
NCI-H23 = system: NCI-H23
HOP-62 = system: HOP-62
UACC-257 = system: UACC-257
MOLT-4 = system: MOLT-4
SK-MEL-2 = system: SK-MEL-2
MDA-MB-435 = system: MDA-MB-435
SK-MEL-5 = system: SK-MEL-5
786-0 = system: 786-0
BT-549 = system: BT-549
PC-3 = system: PC-3
MDA-N = system: MDA-N
KM12 = system: KM12
M14 = system: M14
K562 = system: K562
UACC-62 = system: UACC-62
RPMI-8226 = system: RPMI-8226
A498 = system: A498
HL-60 = system: HL-60

COC(=O)[C@@]12CCCC(=O)[C@@H]1[C@H]1CCCC[C@H]12
GI50 (HCT-116): > 100 µM (inactive) | GI50 (NCI-H23): > 100 µM (inactive) | GI50 (HOP-62): > 100 µM (inactive) | GI50 (UACC-257): > 100 µM (inactive) | GI50 (MOLT-4): 30.6 µM (inactive) | GI50 (SK-MEL-2): > 100 µM (inactive) | GI50 (MDA-MB-435): > 100 µM (inactive) | GI50 (SK-MEL-5): > 100 µM (inactive) | GI50 (786-0): > 100 µM (inactive) | GI50 (BT-549): > 100 µM (inactive) | GI50 (PC-3): > 100 µM (inactive) | GI50 (MDA-N): > 100 µM (inactive) | GI50 (KM12): > 100 µM (inactive) | GI50 (M14): > 100 µM (inactive) | GI50 (K562): 35.8 µM (inactive) | GI50 (UACC-62): > 100 µM (inactive) | GI50 (RPMI-8226): > 100 µM (inactive)

CCOc1ccc(/C=N/[N+](C)(C)C)cc1OCC
GI50 (HCT-116): > 10 µM (inactive) | GI50 (NCI-H23): > 10 µM (inactive) | GI50 (HOP-62): > 10 µM (inactive) | GI50 (UACC-257): > 10 µM (inactive) | GI50 (MOLT-4): > 10 µM (inactive) | GI50 (MDA-MB-435): > 10 µM (inactive) | GI50 (SK-MEL-5): > 10 µM (inactive) | GI50 (786-0): > 10 µM (inactive) | GI50 (BT-549): > 10 µM (inactive) | GI50 (PC-3): > 10 µM (inactive) | GI50 (MDA-N): > 10 µM (inactive) | GI50 (KM12): > 10 µM (inactive) | GI50 (M14): > 10 µM (inactive) | GI50 (K562): > 10 µM (inactive) | GI50 (UACC-62): > 10 µM (inactive) | GI50 (RPMI-8226): > 10 µM (inactive)

COc1ccccc1/N=N/C(=N\NC(=O)c1ccc(C)cc1)c1ccc(N(CCC#N)CCC#N)cc1C
GI50 (HCT-116): 31.6 µM (inactive) | GI50 (NCI-H23): 28.2 µM (inactive) | GI50 (HOP-62): 50.9 µM (inactive) | GI50 (UACC-257): 40.3 µM (inactive) | GI50 (MOLT-4): 35.2 µM (inactive) | GI50 (SK-MEL-2): 36.4 µM (inactive) | GI50 (A498): 51.8 µM (inactive) | GI50 (MDA-MB-435): 39.5 µM (inactive) | GI50 (SK-MEL-5): 20.8 µM (inactive) | GI50 (786-0): 70.3 µM (inactive) | GI50 (BT-549): 35.2 µM (inactive) | GI50 (PC-3): 35 µM (inactive) | GI50 (MDA-N): 45.6 µM (inactive) | GI50 (KM12): 41.6 µM (inactive) | GI50 (M14): 38.2 µM (inactive) | GI50 (K562): 37.8 µM (inactive) | GI50 (RPMI-8226): 40.4 µM (inactive)

CC(C)CCNC(=O)c1ccc(CNC(=O)/C=C/c2csc(-c3ccccc3)n2)cc1
GI50 (HCT-116): 46.7 µM (inactive) | GI50 (NCI-H23): > 100 µM (inactive) | GI50 (HOP-62): 17.9 µM (inactive) | GI50 (UACC-257): 96.8 µM (inactive) | GI50 (MOLT-4): > 100 µM (inactive) | GI50 (SK-MEL-2): > 100 µM (inactive) | GI50 (A498): 19.9 µM (inactive) | GI50 (MDA-MB-435): > 100 µM (inactive) | GI50 (SK-MEL-5): 29.5 µM (inactive) | GI50 (786-0): 32.7 µM (inactive) | GI50 (BT-549): 78.5 µM (inactive) | GI50 (PC-3): > 100 µM (inactive) | GI50 (MDA-N): > 100 µM (inactive) | GI50 (KM12): > 100 µM (inactive) | GI50 (M14): > 100 µM (inactive) | GI50 (K562): > 100 µM (inactive) | GI50 (UACC-62): > 100 µM (inactive) | GI50 (RPMI-8226): > 100 µM (inactive)

COc1ccc(C2SC(=N)Nc3c2c(C)nn3C(=O)c2ccncc2)cc1OC (stereo not given)
GI50 (HCT-116): > 10 µM (inactive) | GI50 (NCI-H23): > 10 µM (inactive) | GI50 (HOP-62): > 10 µM (inactive) | GI50 (UACC-257): > 10 µM (inactive) | GI50 (MOLT-4): > 10 µM (inactive) | GI50 (SK-MEL-2): > 10 µM (inactive) | GI50 (MDA-MB-435): > 10 µM (inactive) | GI50 (SK-MEL-5): > 10 µM (inactive) | GI50 (786-0): > 10 µM (inactive) | GI50 (BT-549): > 10 µM (inactive) | GI50 (PC-3): > 10 µM (inactive) | GI50 (MDA-N): > 10 µM (inactive) | GI50 (KM12): > 10 µM (inactive) | GI50 (HL-60): > 10 µM (inactive) | GI50 (M14): > 10 µM (inactive) | GI50 (K562): > 10 µM (inactive) | GI50 (UACC-62): > 10 µM (inactive) | GI50 (RPMI-8226): > 10 µM (inactive)

Cc1cc(S(=O)(=O)Nc2nc3ccccc3n2-c2ccccc2)c(S)cc1Cl
GI50 (HCT-116): > 100 µM (inactive) | GI50 (UACC-257): > 100 µM (inactive) | GI50 (MOLT-4): > 100 µM (inactive) | GI50 (SK-MEL-2): > 100 µM (inactive) | GI50 (MDA-MB-435): > 100 µM (inactive) | GI50 (SK-MEL-5): 50.6 µM (inactive) | GI50 (786-0): > 100 µM (inactive) | GI50 (BT-549): > 100 µM (inactive) | GI50 (PC-3): > 100 µM (inactive) | GI50 (MDA-N): 87.5 µM (inactive) | GI50 (KM12): > 100 µM (inactive) | GI50 (HL-60): > 100 µM (inactive) | GI50 (M14): > 100 µM (inactive) | GI50 (K562): > 100 µM (inactive) | GI50 (UACC-62): > 100 µM (inactive) | GI50 (RPMI-8226): > 100 µM (inactive)

Fc1ccc(C(OCCN2CCC3CCC(C2)N3C/C=C/c2cccs2)c2ccc(F)cc2)cc1 (stereo not given)
GI50 (HCT-116): 3.45 µM (inactive) | GI50 (NCI-H23): 8.34 µM (inactive) | GI50 (HOP-62): 13.6 µM (inactive) | GI50 (UACC-257): 3.66 µM (inactive) | GI50 (MOLT-4): 1.21 µM (inactive) | GI50 (SK-MEL-2): 10.7 µM (inactive) | GI50 (A498): 9.06 µM (inactive) | GI50 (MDA-MB-435): 6.98 µM (inactive) | GI50 (SK-MEL-5): 3.04 µM (inactive) | GI50 (786-0): 8.49 µM (inactive) | GI50 (BT-549): 13.2 µM (inactive) | GI50 (PC-3): 5.75 µM (inactive) | GI50 (MDA-N): 10.3 µM (inactive) | GI50 (KM12): 4.44 µM (inactive) | GI50 (M14): 4.25 µM (inactive) | GI50 (UACC-62): 11.5 µM (inactive) | GI50 (RPMI-8226): 0.0133 µM (active)

Cc1nc(C(N)=S)sc1/C(CC(=O)C(=O)Nc1cccc2ccc(O)cc12)=N\NC(=O)c1ccncc1
GI50 (HCT-116): 55.8 µM (inactive) | GI50 (NCI-H23): > 100 µM (inactive) | GI50 (HOP-62): 37.5 µM (inactive) | GI50 (UACC-257): > 100 µM (inactive) | GI50 (MOLT-4): 28.2 µM (inactive) | GI50 (SK-MEL-2): > 100 µM (inactive) | GI50 (MDA-MB-435): > 100 µM (inactive) | GI50 (SK-MEL-5): 33.2 µM (inactive) | GI50 (786-0): 40.3 µM (inactive) | GI50 (BT-549): > 100 µM (inactive) | GI50 (PC-3): 75.9 µM (inactive) | GI50 (MDA-N): 63.5 µM (inactive) | GI50 (KM12): > 100 µM (inactive) | GI50 (HL-60): 25.6 µM (inactive) | GI50 (M14): > 100 µM (inactive) | GI50 (UACC-62): 29.5 µM (inactive)
